Laboratory results published in US20160237059A1, “HETEROCYCLIC SUBSTITUTED TRIFLUOROMETHYL PYRIMIDINONES AND THEIR USE” (BAYER PHARMA AKTIENGESELLSCHAFT, priority 2013, published 2016).

Columns and labels:
Type in all cases: cell-based
murine CCR2 [1] = biological target: T1, murine CCR2 (Mus musculus, UniProt P51683); experiment: Functional β-arrestin recruiting test with human MCP-1 (B-2a); conditions: U2OS β-arrestin cell line transfected with murine CCR2; agonist human MCP-1 at EC50 (about 3 nM); in some cases means of several determinations
T1 construct: host or cells: U2OS β-arrestin cell line
T1 sequence (P51683 whole entry): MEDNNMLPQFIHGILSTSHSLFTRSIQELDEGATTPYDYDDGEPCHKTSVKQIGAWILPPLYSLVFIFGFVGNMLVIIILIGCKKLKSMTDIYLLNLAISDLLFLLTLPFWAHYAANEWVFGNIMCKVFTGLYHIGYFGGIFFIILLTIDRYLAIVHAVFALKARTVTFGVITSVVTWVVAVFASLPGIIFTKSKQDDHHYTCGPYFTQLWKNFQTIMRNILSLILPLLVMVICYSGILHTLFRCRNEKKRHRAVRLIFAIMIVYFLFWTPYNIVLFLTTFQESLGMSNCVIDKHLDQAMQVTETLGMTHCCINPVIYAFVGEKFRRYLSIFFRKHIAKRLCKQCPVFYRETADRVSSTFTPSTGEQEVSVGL
Outline: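 Antagonist mode in U2OS cells expressing murine CCR2, read by PathHunter β-galactosidase complementation luminescence. Cells pre-incubated 10 min with 10-point compound dilutions (1:3.16 steps), then stimulated with human MCP-1 at its EC50 (usually about 3 nM) for 90 min at 37° C.; IC50 from 4-parameter logistic fit.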

murine CCR2 [2] = biological target: T1, murine CCR2; experiment: Functional β-arrestin recruiting test with murine MCP-1 (B-2b); conditions: U2OS β-arrestin cell line transfected with murine CCR2; agonist murine MCP-1; in some cases means of several determinations
Outline: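 In a PathHunter β-galactosidase complementation assay, U2OS cells expressing murine CCR2 were preincubated 10 min with compound (10-point, 1:3.16 dilutions), then challenged with murine MCP-1 at its predetermined EC50 for 90 min at 37 °C. Luminescence was read after 60 min, and IC50 was fitted with a 4-parameter Hill function.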

human CCR2 = biological target: T2, human CCR2 (Homo sapiens, UniProt P41597); experiment: Functional Ca2+ release test (B-1); conditions: Chem-1 cell line transfected with human CCR2; 50% inhibition of the MCP-1 effect, MCP-1 at EC50 (about 5 nM); in some cases means of several determinations
T2 construct: host or cells: Chem-1 cell line
T2 sequence (P41597 1-360 isoform P41597-2): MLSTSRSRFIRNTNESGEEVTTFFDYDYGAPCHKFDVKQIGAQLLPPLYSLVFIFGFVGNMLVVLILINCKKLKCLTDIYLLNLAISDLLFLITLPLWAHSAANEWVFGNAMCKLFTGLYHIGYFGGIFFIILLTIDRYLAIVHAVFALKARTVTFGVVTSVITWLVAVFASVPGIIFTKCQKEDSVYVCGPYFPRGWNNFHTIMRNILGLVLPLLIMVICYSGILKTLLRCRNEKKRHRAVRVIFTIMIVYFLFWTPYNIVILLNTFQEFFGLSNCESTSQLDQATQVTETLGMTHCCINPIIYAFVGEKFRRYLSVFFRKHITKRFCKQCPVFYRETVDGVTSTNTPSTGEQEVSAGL
Outline: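 Chem-1 cells expressing human CCR2, loaded with Fluo-4 for 60 min at 37° C, were preincubated 10 min with compound (10-point, 1:3.16 dilutions), then stimulated with MCP-1 at its predetermined EC50 (about 5 nM). Ca2+ release was monitored for 120 s. IC50 came from a 4-parameter Hill fit.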

| IC50 (murine CCR2 [1]) [nM] | IC50 (murine CCR2 [2]) [nM] | IC50 (human CCR2) [nM] | Structure (SMILES) |
| --- | --- | --- | --- |
| 6.3 | 18 | 2 | O=c1[nH]c(-c2n[nH]cc2Cl)nc(C(F)(F)F)c1Oc1ccc(Cl)c(C(F)(F)F)c1 [Example 77, 2-(4-chloro-1H-pyrazol-3-yl)-5-[4-chloro-3-(trifluoromethyl)phenoxy]-6-(trifluoromethyl)pyrimidin-4(3H)-one] |
| 26 | 111 | 1.5 | O=c1[nH]c(-c2n[nH]cc2Cl)nc(C(F)(F)F)c1Cc1ccc(Cl)c(C(F)(F)F)c1 [Example 76, 2-(4-chloro-1H-pyrazol-3-yl)-5-[4-chloro-3-(trifluoromethyl)benzyl]-6-(trifluoromethyl)pyrimidin-4(3H)-one] |
| 79 | 308 | 20 | Cc1nc(-c2nc(C(F)(F)F)c(Oc3ccc(Cl)c(Cl)c3)c(=O)[nH]2)no1 [Example 83] |
| 8.3 | 16 | 0.4 | Nc1ccc(-c2nc(C(F)(F)F)c(Oc3ccc(Cl)c(C(F)(F)F)c3)c(=O)[nH]2)nc1 [Example 113, 2-(5-Aminopyridin-2-yl)-5-[4-chloro-3-(trifluoromethyl)phenoxy]-6-(trifluoromethyl)pyrimidin-4(3H)-one] |
| 630 |  | 72 | Cc1n[nH]c(Cc2nc(C(F)(F)F)c(Cc3ccc(Cl)c(Cl)c3)c(=O)[nH]2)n1 [Example 99, 5-(3,4-Dichlorobenzyl)-2-[(3-methyl-1H-1,2,4-triazol-5-yl)methyl]-6-(trifluoromethyl)pyrimidin-4(3H)-one] |
| 490 |  | 100 | O=c1[nH]c(Cc2ccsc2)nc(C(F)(F)F)c1Cc1ccc(Cl)c(Cl)c1 [Example 97, 5-(3,4-dichlorobenzyl)-2-(3-thienylmethyl)-6-(trifluoromethyl)pyrimidin-4(3H)-one] |
| 260 |  | 150 | COc1cccnc1Nc1nc(C(F)(F)F)c(Oc2ccc(Cl)c(Cl)c2)c(=O)[nH]1 [Example 102, 5-(3,4-dichlorophenoxy)-2-[(3-methoxypyridin-2-yl)amino]-6-(trifluoromethyl)pyrimidin-4(3H)-one] |
| 920 |  | 65 | COc1cccc(Nc2nc(C(F)(F)F)c(Oc3ccc(Cl)c(C(F)(F)F)c3)c(=O)[nH]2)n1 [Example 100, 5-[4-Chloro-3-(trifluoromethyl)phenoxy]-2-[(6-methoxypyridin-2-yl)amino]-6-(trifluoromethyl)pyrimidin-4(3H)-one] |
| 420 |  | 90 | O=c1[nH]c(Cc2ccccn2)nc(C(F)(F)F)c1Cc1ccc(Cl)c(Cl)c1 [Example 94, 5-(3,4-dichlorobenzyl)-2-(pyridin-2-ylmethyl)-6-(trifluoromethyl)pyrimidin-4(3H)-one] |

Second part, the compound before the results:

| Structure (SMILES) | IC50 (murine CCR2 [1]) [nM] | IC50 (murine CCR2 [2]) [nM] | IC50 (human CCR2) [nM] |
| --- | --- | --- | --- |
| COc1ncccc1-c1nc(C(F)(F)F)c(Oc2ccc(Cl)c(Cl)c2)c(=O)[nH]1 [Example 42] | 44 | 812 | 1.5 |
| Nc1cccc(-c2nc(C(F)(F)F)c(Oc3ccc(Cl)c(C(F)(F)F)c3)c(=O)[nH]2)n1 [Example 44, 2-(6-aminopyridin-2-yl)-5-[4-chloro-3-(trifluoromethyl)phenoxy]-6-(trifluoromethyl)pyrimidin-4(3H)-one] | 74 | 222 | 2.2 |
| Nc1ccnc(-c2nc(C(F)(F)F)c(Oc3ccc(Cl)c(C(F)(F)F)c3)c(=O)[nH]2)c1 [Example 45, 2-(4-aminopyridin-2-yl)-5-[4-chloro-3-(trifluoromethyl)phenoxy]-6-(trifluoromethyl)pyrimidin-4(3H)-one] | 86 | 553 | 4.7 |
| O=c1[nH]c(-c2ccccn2)nc(C(F)(F)F)c1Oc1ccc(F)c(Cl)c1 [Example 2, 5-(3-chloro-4-fluorophenoxy)-2-(pyridin-2-yl)-6-(trifluoromethyl)pyrimidin-4(3H)-one] | 88 | 1040 | 4.5 |
| O=c1[nH]c(-c2ncccc2Cl)nc(C(F)(F)F)c1Cc1ccc(Cl)c(C(F)(F)F)c1 [Example 35, 2-(3-chloropyridin-2-yl)-5-[4-chloro-3-(trifluoromethyl)benzyl]-6-(trifluoromethyl)pyrimidin-4(3H)-one] | 35 | 160 | 1.5 |
| O=c1[nH]c(-c2cc[nH]n2)nc(C(F)(F)F)c1Oc1ccc(Cl)c(C(F)(F)F)c1 [Example 65, 5-[4-chloro-3-(trifluoromethyl)phenoxy]-2-(1H-pyrazol-3-yl)-6-(trifluoromethyl)pyrimidin-4(3H)-one] | 1.8 | 4.8 | 0.3 |
| O=c1[nH]c(-n2cccn2)nc(C(F)(F)F)c1Cc1ccc(Cl)c(Cl)c1 [Example 53, 5-(3,4-dichlorobenzyl)-2-(1H-pyrazol-1-yl)-6-(trifluoromethyl)pyrimidin-4(3H)-one] | 67 | 440 | 1.8 |
| Cc1cc(-c2nc(C(F)(F)F)c(Oc3ccc(Cl)c(Cl)c3)c(=O)[nH]2)nn1C [Example 54, 5-(3,4-dichlorophenoxy)-2-(1,5-dimethyl-1H-pyrazol-3-yl)-6-(trifluoromethyl)pyrimidin-4(3H)-one] | 51 | 458 | 2.8 |
| O=c1[nH]c(-n2cccn2)nc(C(F)(F)F)c1Oc1ccc(Cl)c(Cl)c1 [Example 51, 5-(3,4-dichlorophenoxy)-2-(1H-pyrazol-1-yl)-6-(trifluoromethyl)pyrimidin-4(3H)-one] | 20 | 112 | 0.5 |
| O=c1[nH]c(-c2n[nH]cc2Cl)nc(C(F)(F)F)c1Cc1ccc(Cl)c(Cl)c1 [Example 75, 2-(4-chloro-1H-pyrazol-3-yl)-5-(3,4-dichlorobenzyl)-6-(trifluoromethyl)pyrimidin-4(3H)-one] | 29 | 102 | 1.3 |
| O=c1[nH]c(-c2ncccc2F)nc(C(F)(F)F)c1Oc1ccc(Cl)c(Cl)c1 [Example 15, 5-(3,4-dichlorophenoxy)-2-(3-fluoropyridin-2-yl)-6-(trifluoromethyl)pyrimidin-4(3H)-one] | 30 | 144 | 2 |
| O=c1[nH]c(-c2n[nH]cc2Cl)nc(C(F)(F)F)c1Oc1ccc(Cl)c(Cl)c1 [Example 74, 2-(4-chloro-1H-pyrazol-3-yl)-5-(3,4-dichlorophenoxy)-6-(trifluoromethyl)pyrimidin-4(3H)-one] | 2.9 | 59 | 1.1 |
| O=c1[nH]c(-c2ncccc2Cl)nc(C(F)(F)F)c1Cc1ccc(Cl)c(Cl)c1 [Example 16, 2-(3-chloropyridin-2-yl)-5-(3,4-dichlorobenzyl)-6-(trifluoromethyl)pyrimidin-4(3H)-one] | 21 | 307 | 2.1 |
| O=c1[nH]c(-c2ncccc2Cl)nc(C(F)(F)F)c1Oc1ccc(Cl)c(F)c1 [Example 11, 5-(4-chloro-3-fluorophenoxy)-2-(3-chloropyridin-2-yl)-6-(trifluoromethyl)pyrimidin-4(3H)-one] | 28 | 194 | 4.3 |
| O=c1[nH]c(-c2ncccc2Cl)nc(C(F)(F)F)c1Oc1ccc(Cl)c(C(F)(F)F)c1 [Example 38, 2-(3-chloropyridin-2-yl)-5-[4-chloro-3-(trifluoromethyl)phenoxy]-6-(trifluoromethyl)pyrimidin-4(3H)-one] | 5.1 | 8.9 | 0.3 |
| COc1ncccc1-c1nc(C(F)(F)F)c(Oc2ccc(Cl)c(C(F)(F)F)c2)c(=O)[nH]1 [Example 37, 5-[4-chloro-3-(trifluoromethyl)phenoxy]-2-(2-methoxypyridin-3-yl)-6-(trifluoromethyl)pyrimidin-4(3H)-one] | 40 | 122 | 0.9 |
| Nc1nc[nH]c1-c1nc(C(F)(F)F)c(Oc2ccc(Cl)c(C(F)(F)F)c2)c(=O)[nH]1 [Example 69, 2-(4-amino-1H-imidazol-5-yl)-5-[4-chloro-3-(trifluoromethyl)phenoxy]-6-(trifluoromethyl)pyrimidin-4(3H)-one] | 1100 |  | 130 |
| Cc1cc(C)n(-c2nc(C(F)(F)F)c(Cc3ccc(Cl)c(Cl)c3)c(=O)[nH]2)n1 [Example 57, 5-(3,4-dichlorobenzyl)-2-(3,5-dimethyl-1H-pyrazol-1-yl)-6-(trifluoromethyl)pyrimidin-4(3H)-one] | 1300 |  | 83 |
| O=c1[nH]c(-c2ccc(Cl)cn2)nc(C(F)(F)F)c1Cc1ccc(Cl)c(Cl)c1 [Example 22, 2-(5-chloropyridin-2-yl)-5-(3,4-dichlorobenzyl)-6-(trifluoromethyl)pyrimidin-4(3H)-one] | 400 |  | 7 |
